In data set [1] the test system is PANC-1 cells. The data set is described as follows: MTT proliferation assay, PANC-1. To be noted: Homo sapiens, PANC-1, 72 h.
Data set [2] deals with SJSA-1 xenograft. Kind of data set: SJSA-1 bone osteosarcoma subcutaneous xenograft model. The conditions noted are these: SBT-100 5.0 mg/kg BIDx14, Doxorubicin 7.0 mg/kg days 1, 8, 14, IP.
For data set [3], the system named is SJSA-1 xenograft. To be noted: mouse, in vivo.
Data set [4] addresses T1, Human recombinant TNF-α (Homo sapiens, UniProt P01375).
T1 construct: purchased Sigma-Aldrich
The data set is described as follows: Inhibition of TNF-α cytotoxicity in L929 cells (MTS/PMS). The data set is classed as cell-based, mouse.

The subject of data set [5] is STAT3. Kind of data set: STAT3 reporter GloResponse SIE-luc2P/HEK293 assay, IL-6 induction. The conditions noted are these: 24 and 48 hours treatment. The format is cell-based, human.
For data set [6], the system named is MDA-MB-231 cells. The data set is described as follows: MTT proliferation assay, MDA-MB-231. The conditions noted are these: test article cloudy; cells lost normal morphology. The format is cell-based, human.
For data set [7], the target named is T2, active human TNF-α full length protein (Homo sapiens, UniProt P01375).
T2 construct: active human TNF-α full length protein; purchased Abcam
Kind of data set: TNF-α binding ELISA. The conditions noted are these: for detection in coated vs non-coated wells: 0.5 μg/mL coating antigen; for detection / binding to the TNF-α protein: Experiment 1. As for the experimental part: In this Example, the binding of anti-TNF-α sdAbs to active human TNF-α full length protein was assessed using an enzyme linked immunosorbent assay (ELISA) format. Additionally, the feasibility of utilizing a secondary antibody targeted to the his tag portion of the sdAbs was assessed.
The test articles for this study were anti-TNF-α VHH62 (SEQ ID NO:47) sdAb, TNF-α VHH66 (SEQ ID NO:45) sdAb, and anti-TNF-α VHH69 (SEQ ID NO:46) sdAb (Experiment 1).
For the assays to assess the binding of the sdAbs to TNF-α protein (Experiment 1, 4 and 5), a standard sandwich ELISA format was utilized. […] Plates were incubated overnight at 2-8° C. After the incubation, plates were washed (3×) and blocked (3% Bovine Serum Albumin (BSA) in Phosphate Buffered Saline (PBS)) for at least one hour at room temperature.
After removal of the blocking buffer and washing (3×), samples were added to the appropriate wells of the ELISA plates and incubated at room temperature with shaking (150 rpm) for at least one hour. The secondary antibody (rabbit anti-llama biotinylated antibody at either a1:5,000 or 10,000 dilution) was then added to each well and incubated with shaking for at least one hour at room temperature.
After the incubation with secondary antibody, the plates were again washed (3×) and horseradish peroxidase (HRP) at either a 1:25,000 or 1:50,000 dilution was added to each well. Plates were incubated with shaking for at least one hour at room temperature. A final wash (3×) was performed followed by the addition of TMB (Tetramethylbenzidine) substrate. After a 20 to 25 minute incubation at room temperature, stop solution was added to halt the colorimetric reaction. The absorbance at 450 nm was measured on a VersaMax instrument utilizing SoftMax Pro GxP version 5.4 software from Molecular Devices (Sunnyvale, CA).
The final experiment performed was to confirm that the results from the ELISA testing were due to binding to the TNF-α protein and not non-specific binding of the sdAb. For this determination, a comparison was made between wells coated with 0.5 μg/mL of coating antigen and non-coated wells. […] This experiment confirms that the detection seen with the previous experiments was due to the specific binding of the VHH to the coating antigen and not due to non-specific binding.

“And” between values parts separate entries of the source, which are not always exact repeats. Equal values may be shown once. Numbered stars: 1 amine (or outer) side, 2 acyl side, 3 side chain; on linkers, the order of the positions; unused ones are H or OH. Bridge positions count the residues as written; N and C are the ends. Square brackets hold non-standard residues; d marks the D form. Peptide text beside a SMILES is read from it. I, II: the chains in the order shown. Actinocin(9to1) = Cc1c2oc3c(C)ccc(C(=O)[*:1])c3nc-2c(C(=O)[*:2])c(N)c1=O; NMeV = CN[C@H](C(=O)O)C(C)C; Sar = CNCC(=O)O

T1 sequence (P01375 77-233 limits assumed): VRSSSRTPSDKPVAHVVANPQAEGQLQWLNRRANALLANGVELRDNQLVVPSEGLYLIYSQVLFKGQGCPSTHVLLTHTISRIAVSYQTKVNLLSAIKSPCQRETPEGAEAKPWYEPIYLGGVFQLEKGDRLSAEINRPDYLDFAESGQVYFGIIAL
T2 sequence (P01375 77-233 limits assumed): as above

As to `Nc1ccn([C@@H]2O[C@H](CO)[C@@H](O)C2(F)F)c(=O)n1` [Gemcitabine], the inhibition at 0.313 µM in data set [1] (read-out: % Inh, Gemcitabine Hydrochloride (Biovision #1759) 0.313 μM, 72 hours) is 0%. In addition, the inhibition at 0.625 µM in data set [1] (read-out: % Inh, Gemcitabine Hydrochloride (Biovision #1759) 0.625 μM, 72 hours) turned out to be 2%. Besides, in data set [1] (read-out: % Inh, Gemcitabine Hydrochloride (Biovision #1759) 5 μM, 72 hours), the inhibition at 5 µM came out at 36%. Further, the inhibition at 10 µM in data set [1] (read-out: % Inh, Gemcitabine Hydrochloride (Biovision #1759) 10 μM, 72 hours) turned out to be 46%.
For `COc1cccc2c1C(=O)c1c(O)c3c(c(O)c1C2=O)C[C@@](O)(C(=O)CO)C[C@@H]3O[C@H]1C[C@H](N)[C@H](O)[C@H](C)O1` [Doxorubicin, reference compound], the results for the “Tumor measurement, individual animals” value in data set [2] (day 8 post implant) and in data set [2] (day 23 post implant) were 0.00 mm^3 and 116.85 mm^3, respectively. Also, in data set [2] (day 13 post implant), the “Tumor measurement, Mean Abs” value came out at 70.72 mm^3. Further, in data set [3] (Hsd: Athymic Nude-Fox1nu), the “number of surviving at the end of the study” value is on record as 2. Further, the “Are the survival curves sig different?” value in data set [3] was “Yes”.
With TNFa, the “% Toxicity, Sample Replicate #” value in data set [4] (Assay 1 control, TNFa 0.5 μg/mL) is 101.9% and 101.6% and 101.8% (3×) and 102.1% (4×) and 102.6% and 102.7% and 101.7%.
Regarding `CC(=O)c1cc2c(o1)C(=O)c1ccccc1C2=O` [BB1608, napabucasin, reference compound], the “effect on IL-6 induction of the reporter” value in data set [5] was “Inhibition of IL-6”.
For `Cc1c2oc3c(C)ccc(C(=O)N[C@@H]4C(=O)N[C@H](C(C)C)C(=O)N5CCC[C@H]5C(=O)N(C)CC(=O)N(C)[C@@H](C(C)C)C(=O)O[C@@H]4C)c3nc-2c(C(=O)N[C@@H]2C(=O)N[C@H](C(C)C)C(=O)N3CCC[C@H]3C(=O)N(C)CC(=O)N(C)[C@@H](C(C)C)C(=O)O[C@@H]2C)c(N)c1=O` [Actinomycin D] (I: T[dV]P[Sar][NMeV] / II: T[dV]P[Sar][NMeV]; ester I:1-I:C, II:1-II:C; linker I:N-II:N via Actinocin(9to1)), the “% Toxicity, Sample Replicate #” value was 5.4% and 2.3% and 3.5% and 0% (8×) in data set [4] (Assay 1 control, Actinomycin D only (no TNFα)); 0% in data set [4] (Assay 2 control, Actinomycin D only (no TNFα)).
As to “MPT His Tag: anti-STAT3 VHH13 (SBT-100) preparation produced by Microprotein Technologies, His tagged”, the “inhibition compared with the other SBT-100 preparations” value in data set [6] was “greatest inhibition”.

B1: anti-TNF-α VHH62: anti-TNF-α sdAb, SEQ ID NO:47 (TNF_62, SEQ ID NO: 66) (protein)
VHH: QVQLVESGGGPVQAGETLRLSCTASGFTFAEADMGWYRQAPGHECELVSTITTEGITSEASSYYADSVRGRFTISRDNAKNMVYLQMNSLKPEDTAVYYCAPDPYAYSTYSDYCSWAQGTQGTLVTVSS
modifications: Camelid
For B1, in data set [7] (1 μg/mL sdAb), the “detection in coated vs non-coated wells” value is “not detected in either coated or non-coated wells” and the “detection / binding to the TNF-α protein” value is “little to no detection”. The OD values in data set [7] (Experiment 4, 10-fold serial dilutions, old and new batch) is under 0.2 OD450. For the same molecule, the “OD450 Values, Non-Coated” value in data set [7] (non-coated wells (non-specific binding), 1 μg/mL sdAb) was −0.001.

B2: anti-TNF-α VHH69: anti-TNF-α sdAb, SEQ ID NO:46 (TNF_69, SEQ ID NO: 64) (protein)
VHH: EVQLVESGGGSVLAGGSLRLSCVASGFTSRYNYMAWFRQAPGKEREGVATIGTASGSADYYGSVKDRFTISQDNAKNTVYLQMNSLKPEDTAMYYCAARTYGTISLTPSDYRYWGQGTLVTVSS
modifications: Camelid
Turning to B2, in data set [5], the “effect on IL-6 induction of the reporter” value was “enhancement of the IL-6 induction”. For the same molecule, in data set [7] (1 μg/mL sdAb), the “detection in coated vs non-coated wells” value is recorded as “detected in coated wells but not in non-coated wells” and the “detection / binding to the TNF-α protein” value was “little to no detection”.

B3: anti-STAT3 VHH14: anti-STAT3 single domain antibody, SEQ ID NO:4 (same sequence as STAT3_14, SEQ ID NO: 8) (protein)
VHH: QVQLVESGGGSVQAGGSLRLSCVASTYTGCMGWFRQAPGKEREGVAALSSRGFAGHYTDSVKGRFSISRDYVKNAVYLQMNTVKPEDAAMYYCAAREGWECGETWLDRTAGGHTYWGQGTLVTVSS
modifications: Camelid
Take B3: the “effect on IL-6 induction of the reporter” value in data set [5] is “enhancement of the IL-6 induction”.

Values taken from patent publication US12509530B2, “Single domain antibodies directed against intracellular antigens” (Singh Molecular Medicine, LLC, priority 2015, dated 2025).
